Reference: patent US20070049564A1 (Wyeth, priority 2005, published 2007)
Like-named read-outs stand apart in the source and are kept apart here.

Key:
E. coli GC 2270 = assay: MIC, broth microdilution; conditions: Escherichia coli
Experimental: Antimicrobial susceptibility testing. The in vitro activities of the antibiotics are determined by the broth microdilution method as recommended by the National Committee for Clinical Laboratory Standards (NCCLS) (1). Mueller-Hinton II broth (MHBII)(BBL Cockeysville, Md.) is the medium employed in the testing procedures. Microtiter plates containing serial dilutions of each antimicrobial agent are inoculated with each organism to yield the appropriate density (10^5 CFU/ml) in a 100 μl final volume. The plates are incubated for 18-22 hours at 35° C. in ambient air.
Representative compounds were first incubated in mouse serum for an hour prior to the in vitro testing against a panel of selected gram-positive and gram-negative bacteria strains. All compounds were also pre-incubated in water for an hour prior to testing as control. Representative compounds of Formula I were incubated in human serum prior to MIC determination.

E. coli = assay: Range of MIC for E. coli strains; conditions: Escherichia coli
E. coli GC 4560 = assay: MIC, broth microdilution; conditions: Escherichia coli
Staph. = assay: Range of MIC for Staph. strains, including MRSA; conditions: Staphylococcus aureus
E. coli GC 2203 = assay: MIC, broth microdilution; conditions: Escherichia coli
E. faecalis GC 2265 = assay: MIC, broth microdilution; conditions: Enterococcus faecalis
E. coli GC 2271 = assay: MIC, broth microdilution; conditions: Escherichia coli
E. coli GC 2236 = assay: MIC, broth microdilution; conditions: Escherichia coli
P. aeruginosa GC 2214 = assay: MIC, broth microdilution; conditions: Pseudomonas aeruginosa
E. coli GC 2233 = assay: MIC, broth microdilution; conditions: Escherichia coli
E. coli GC 4559 = assay: MIC, broth microdilution; conditions: Escherichia coli
E. coli GC 2235 = assay: MIC, broth microdilution; conditions: Escherichia coli
E. coli GC 6465 = assay: MIC, broth microdilution; conditions: Escherichia coli
S. aureus GC 6469 = assay: MIC, broth microdilution; conditions: Staphylococcus aureus
S. agalactiae GC 4564 = assay: MIC, broth microdilution; conditions: Streptococcus agalactiae
E. faecalis GC 4555 = assay: MIC, broth microdilution; conditions: Enterococcus faecalis
E. coli GC 1073 = assay: MIC, broth microdilution; conditions: Escherichia coli
E. faecalis GC 2242 = assay: MIC, broth microdilution; conditions: Enterococcus faecalis
S. aureus GC 4536 = assay: MIC, broth microdilution; conditions: Staphylococcus aureus
S. aureus GC 6467 = assay: MIC, broth microdilution; conditions: Staphylococcus aureus
[1] = GC2270, read-out: MINIMAL INHIBITORY CONCENTRATION MIC, pre-incubated in Mouse Serum
[2] = GC2270, read-out: MINIMAL INHIBITORY CONCENTRATION MIC, pre-incubated in Water
[3] = 20 h, read-out: Range of MIC, E. coli (Mouse Serum)
[4] = read-out: Range of MIC, E. coli (mouse serum)
[5] = GC4560, read-out: MINIMAL INHIBITORY CONCENTRATION MIC, pre-incubated in Mouse Serum
[6] = GC4560, read-out: MINIMAL INHIBITORY CONCENTRATION MIC, pre-incubated in Water
[7] = MRSA, read-out: Range of MIC, Staph (Mouse Serum)
[8] = MRSA, read-out: Range of MIC, Staph (Water)
[9] = MRSA, read-out: Range of MIC, Staph. (mouse serum)
[10] = MRSA, read-out: Range of MIC, Staph. (water)
[11] = GC2203, read-out: MINIMAL INHIBITORY CONCENTRATION MIC, pre-incubated in Mouse Serum
[12] = GC2203, read-out: MINIMAL INHIBITORY CONCENTRATION MIC, pre-incubated in Water
[13] = GC2265, read-out: MINIMAL INHIBITORY CONCENTRATION MIC, pre-incubated in Mouse Serum
[14] = GC2265, read-out: MINIMAL INHIBITORY CONCENTRATION MIC, pre-incubated in Water
[15] = GC2271, read-out: MINIMAL INHIBITORY CONCENTRATION MIC, pre-incubated in Mouse Serum
[16] = GC2271, read-out: MINIMAL INHIBITORY CONCENTRATION MIC, pre-incubated in Water
[17] = GC2236, read-out: MINIMAL INHIBITORY CONCENTRATION MIC, pre-incubated in Mouse Serum
[18] = GC2236, read-out: MINIMAL INHIBITORY CONCENTRATION MIC, pre-incubated in Water
[19] = GC2214, read-out: MINIMAL INHIBITORY CONCENTRATION MIC, pre-incubated in Mouse Serum
[20] = GC2214, read-out: MINIMAL INHIBITORY CONCENTRATION MIC, pre-incubated in Water
[21] = GC2233, read-out: MINIMAL INHIBITORY CONCENTRATION MIC, pre-incubated in Mouse Serum
[22] = GC2233, read-out: MINIMAL INHIBITORY CONCENTRATION MIC, pre-incubated in Water
[23] = GC4559, read-out: MINIMAL INHIBITORY CONCENTRATION MIC, pre-incubated in Mouse Serum
[24] = GC4559, read-out: MINIMAL INHIBITORY CONCENTRATION MIC, pre-incubated in Water
[25] = GC2235, read-out: MINIMAL INHIBITORY CONCENTRATION MIC, pre-incubated in Mouse Serum
[26] = GC2235, read-out: MINIMAL INHIBITORY CONCENTRATION MIC, pre-incubated in Water
[27] = GC6465, read-out: MINIMAL INHIBITORY CONCENTRATION MIC, pre-incubated in Mouse Serum
[28] = GC6465, read-out: MINIMAL INHIBITORY CONCENTRATION MIC, pre-incubated in Water
[29] = GC6469, read-out: MINIMAL INHIBITORY CONCENTRATION MIC, pre-incubated in Mouse Serum
[30] = GC6469, read-out: MINIMAL INHIBITORY CONCENTRATION MIC, pre-incubated in Water
[31] = GC4564, read-out: MINIMAL INHIBITORY CONCENTRATION MIC, pre-incubated in Mouse Serum
[32] = GC4564, read-out: MINIMAL INHIBITORY CONCENTRATION MIC, pre-incubated in Water
[33] = GC4555, read-out: MINIMAL INHIBITORY CONCENTRATION MIC, pre-incubated in Mouse Serum
[34] = GC4555, read-out: MINIMAL INHIBITORY CONCENTRATION MIC, pre-incubated in Water
[35] = GC1073, read-out: MINIMAL INHIBITORY CONCENTRATION MIC, pre-incubated in Mouse Serum
[36] = GC1073, read-out: MINIMAL INHIBITORY CONCENTRATION MIC, pre-incubated in Water
[37] = GC2242, read-out: MINIMAL INHIBITORY CONCENTRATION MIC, pre-incubated in Mouse Serum
[38] = GC2242, read-out: MINIMAL INHIBITORY CONCENTRATION MIC, pre-incubated in Water
[39] = GC4536, read-out: MINIMAL INHIBITORY CONCENTRATION MIC, pre-incubated in Mouse Serum
[40] = GC4536, read-out: MINIMAL INHIBITORY CONCENTRATION MIC, pre-incubated in Water
[41] = GC6467, read-out: MINIMAL INHIBITORY CONCENTRATION MIC, pre-incubated in Mouse Serum
[42] = GC6467, read-out: MINIMAL INHIBITORY CONCENTRATION MIC, pre-incubated in Water

Measured: MIC

CCCN(CC(=O)Nc1cc(N(C)C)c2c(c1O)C(=O)C1=C(O)[C@]3(O)C(=O)C(C(N)=O)=C(O)[C@@H](N(C)C)[C@@H]3C[C@@H]1C2)C(=O)OCOC(=O)c1ccsc1 [Example 27, ({[(2-{[(5aR,6aS,7S,10aS)-9-(aminocarbonyl)-4,7-bis(dimethylamino)-1,8,10a,11-tetrahydroxy-10,12-dioxo-5,5a,6,6a,7,10,10a,12-octahydrotetracen-2-yl]amino}-2-oxoethyl)(propyl)amino]carbonyl}oxy)methyl thiophene-3-carboxylate]
0.5 µg/mL: E. coli GC 2270; [1] | E. coli GC 2203; [11] | E. coli GC 2271; [15] | E. coli GC 2236; [17] | E. coli GC 2233; [21] | E. coli GC 4559; [23] | E. coli GC 2235; [25] | E. coli GC 1073; [35] | E. faecalis GC 2242; [37] | E. faecalis GC 2242; [38]
0.12 µg/mL: S. agalactiae GC 4564; [31] | S. agalactiae GC 4564; [32] | S. aureus GC 4536; [39] | S. aureus GC 4536; [40]
4 to 16 µg/mL: E. coli; read-out: Minimum inhibitory concentration (MIC), E. coli (Human Serum)
0.25 to 2 µg/mL: Staph.; read-out: Minimum inhibitory concentration (MIC), Staph (Human Serum)
0.12 to 2 µg/mL: Staph.; [7] | Staph.; [8] | Staph.; [9] | Staph.; [10]
> 64 µg/mL: E. coli GC 2203; [12] | P. aeruginosa GC 2214; [20] | E. coli GC 4559; [24] | E. coli GC 6465; [28] | E. coli GC 1073; [36]
0.5 to 4 µg/mL: Staph.; read-out: Minimum inhibitory concentration (MIC), Staph (Water)
4 µg/mL: E. coli GC 6465; [27]
8 µg/mL: P. aeruginosa GC 2214; [19]
1 µg/mL: E. coli GC 4560; [6] | E. faecalis GC 2265; [13] | S. aureus GC 6469; [29] | E. faecalis GC 4555; [34]
64 µg/mL: E. coli GC 2270; [2] | E. coli GC 2271; [16] | E. coli GC 2236; [18] | E. coli GC 2233; [22] | E. coli GC 2235; [26]
0.5 to 1 µg/mL: E. coli; [3] | E. coli; [4]
0.25 µg/mL: E. coli GC 4560; [5] | E. faecalis GC 4555; [33]
2 µg/mL: E. faecalis GC 2265; [14] | S. aureus GC 6469; [30] | S. aureus GC 6467; [41] | S. aureus GC 6467; [42]

CCCN(CC(=O)Nc1cc(N(C)C)c2c(c1O)C(=O)C1=C(O)[C@]3(O)C(=O)C(C(N)=O)=C(O)[C@@H](N(C)C)[C@@H]3C[C@@H]1C2)C(=O)OCOC(=O)c1ccc(C(C)(C)C)cc1 [Example 28, ({[(2-{[(5aR,6aS,7S,10aS)-9-(aminocarbonyl)-4,7-bis(dimethylamino)-1,8,10a,11-tetrahydroxy-10,12-dioxo-5,5a,6,6a,7,10,10a,12-octahydrotetracen-2-yl]amino}-2-oxoethyl)(propyl)amino]carbonyl}oxy)methyl 4-tert-butylbenzoate]
2 µg/mL: E. faecalis GC 2265; [13]
0.25 µg/mL: E. coli GC 4560; [5] | E. coli GC 2271; [15] | S. agalactiae GC 4564; [31] | E. faecalis GC 4555; [33]
64 µg/mL: E. faecalis GC 2265; [14] | S. aureus GC 6469; [30] | E. faecalis GC 4555; [34] | S. aureus GC 6467; [42]
4 to 64 µg/mL: Staph.; [8] | Staph.; [10]
0.25 to 1 µg/mL: E. coli; [3] | E. coli; [4]
4 µg/mL: S. aureus GC 6469; [29] | E. faecalis GC 2242; [38] | S. aureus GC 6467; [41]
> 64 µg/mL: E. coli GC 2270; [2] | E. coli; read-out: Range of MIC, E. coli (Water) | E. coli; read-out: Range of MIC, E. coli (water) | E. coli GC 4560; [6] | E. coli GC 2203; [12] | E. coli GC 2271; [16] | E. coli GC 2236; [18] | P. aeruginosa GC 2214; [20] | E. coli GC 2233; [22] | E. coli GC 4559; [24] | E. coli GC 2235; [26] | E. coli GC 6465; [28] | E. coli GC 1073; [36]
32 µg/mL: S. aureus GC 4536; [40]
0.5 µg/mL: E. coli GC 2270; [1] | E. coli GC 2203; [11] | E. coli GC 2236; [17] | E. coli GC 2233; [21] | E. coli GC 4559; [23] | E. coli GC 2235; [25] | S. agalactiae GC 4564; [32] | E. coli GC 1073; [35] | E. faecalis GC 2242; [37] | S. aureus GC 4536; [39]
8 µg/mL: E. coli GC 6465; [27]
16 µg/mL: P. aeruginosa GC 2214; [19]
0.5 to 4 µg/mL: Staph.; [7] | Staph.; [9]
